Results taken from PubChem BioAssay AID330 (DTP/NCI, 2004).
“And” between values parts separate entries of the source, which are not always exact repeats. Identical values can stand only once. Toxic doses and inconclusive results are not listed. Peptide text beside a SMILES is read from it.

Test system: P388 leukemia ip, CD2F1 mice, survival T/C
Experiment: NCI In Vivo Anticancer Drug Screen. Data for tumor model P388 Leukemia (intraperitoneal) in CD2F1 (CDF1) mice
Conditions: endpoint: median survival time, higher = longer survival
Method in brief: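 Mice carrying the transplanted tumor received test compound or vehicle. Survival was recorded in each group, and the value is the treated-group measurement divided by that of the vehicle-treated control group.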

[1] = dose: 100.0 mg/kg/injection, schedule: Q01DX001 (ip), vehicle: saline with Tween-80
[2] = dose: 50.0 mg/kg/injection, schedule: Q04DX003 (ip), vehicle: saline with Tween-80
[3] = dose: 100.0 mg/kg/injection, schedule: Q01DX009 (ip), vehicle: saline with Tween-80
[4] = dose: 100.0 mg/kg/injection, schedule: Q04DX003 (ip), vehicle: saline with Tween-80
[5] = dose: 200.0 mg/kg/injection, schedule: Q01DX009 (ip), vehicle: saline with Tween-80
[6] = dose: 200.0 mg/kg/injection, schedule: Q04DX003 (ip), vehicle: saline with Tween-80
[7] = dose: 60.0 mg/kg/injection, schedule: Q01DX005 (ip), vehicle: saline with Tween-80
[8] = dose: 240.0 mg/kg/injection, schedule: Q01DX005 (ip), vehicle: saline with Tween-80
[9] = dose: 12.5 mg/kg/injection, schedule: Q01DX005 (ip), vehicle: saline with Tween-80
[10] = dose: 50.0 mg/kg/injection, schedule: Q01DX005 (ip), vehicle: saline with Tween-80
[11] = dose: 100.0 mg/kg/injection, schedule: Q01DX005 (ip), vehicle: saline with Tween-80
[12] = dose: 200.0 mg/kg/injection, schedule: Q01DX005 (ip), vehicle: saline with Tween-80
[13] = dose: 50.0 mg/kg/injection, schedule: Q01DX009 (ip), vehicle: Klucel (hydroxypropylcellulose) (HPC)
[14] = dose: 100.0 mg/kg/injection, schedule: Q01DX009 (ip), vehicle: Klucel (hydroxypropylcellulose) (HPC)
[15] = dose: 200.0 mg/kg/injection, schedule: Q01DX009 (ip), vehicle: Klucel (hydroxypropylcellulose) (HPC)
[16] = dose: 50.0 mg/kg/injection, schedule: Q01DX009 (ip), vehicle: saline with Tween-80

In the case of Cn1c2ccc([N+](=O)[O-])cc2c(=O)c2c(O)cc3c(c21)C=CC(C)(C)O3, the T/C (dose: 25.0 mg/kg/injection, schedule: Q01DX001 (ip), vehicle: saline with Tween-80) is reported as 97 % of control, the T/C (dose: 50.0 mg/kg/injection, schedule: Q01DX001 (ip), vehicle: saline with Tween-80) is reported as 97 % of control and the T/C [1] is reported as 89 % of control and 95 % of control.

In the case of O=S(=O)(Nc1ccc(O)cc1)c1ccccc1, the T/C (dose: 25.0 mg/kg/injection, schedule: Q04DX003 (ip), vehicle: saline with Tween-80) is reported as 110 % of control, the T/C [2] is reported as 100 % of control and the T/C [3] is reported as 108 % of control. For the same compound, the T/C [4] was 107 % of control, the T/C [5] was 100 % of control and the T/C [6] was 100 % of control. For the same compound, the T/C (dose: 400.0 mg/kg/injection, schedule: Q01DX009 (ip), vehicle: saline with Tween-80) was 87 % of control and the T/C (dose: 400.0 mg/kg/injection, schedule: Q04DX003 (ip), vehicle: saline with Tween-80) was 100 % of control.

In the case of C/C(C#N)=C1/Nc2ccccc2NC1=O, the T/C (dose: 25.0 mg/kg/injection, schedule: Q01DX009 (ip), vehicle: distilled water + Tween-80 + alcohol) is reported as 95 % of control, the T/C (dose: 50.0 mg/kg/injection, schedule: Q01DX009 (ip), vehicle: distilled water + Tween-80 + alcohol) is reported as 88 % of control and 92 % of control and the T/C (dose: 100.0 mg/kg/injection, schedule: Q01DX009 (ip), vehicle: distilled water + Tween-80 + alcohol) is reported as 91 % of control. The T/C (dose: 200.0 mg/kg/injection, schedule: Q01DX009 (ip), vehicle: distilled water + Tween-80 + alcohol) was 100 % of control.

O=C(c1ccc(Cl)cc1)N1CCN(C(=O)N2CCN(C(=O)N3CCN(C(=O)c4ccc(Cl)cc4)CC3)CC2)CC1 was tested, and the T/C (dose: 3.75 mg/kg/injection, schedule: Q01DX005 (ip), vehicle: saline with Tween-80) was 99 % of control, the T/C (dose: 7.5 mg/kg/injection, schedule: Q01DX005 (ip), vehicle: saline with Tween-80) was 99 % of control and the T/C (dose: 15.0 mg/kg/injection, schedule: Q01DX005 (ip), vehicle: saline with Tween-80) was 100 % of control. For the same compound, the T/C (dose: 30.0 mg/kg/injection, schedule: Q01DX005 (ip), vehicle: saline with Tween-80) was 89 % of control, the T/C [7] was 92 % of control and the T/C [8] was 89 % of control.

O=C(Cc1cc2c(cc1Br)OCO2)NCCc1ccc2c(c1)OCO2 was tested, and the T/C (dose: 12.5 mg/kg/injection, schedule: Q01DX001 (ip), vehicle: saline + alcohol) was 99 % of control, the T/C (dose: 25.0 mg/kg/injection, schedule: Q01DX001 (ip), vehicle: saline + alcohol) was 98 % of control and the T/C (dose: 50.0 mg/kg/injection, schedule: Q01DX001 (ip), vehicle: saline + alcohol) was 105 % of control.

In the case of CCOC(=O)CSc1cc(O)c2ccccc2c1N=Nc1ccc(C(=O)O)cc1, the T/C [9] is reported as 94 % of control, the T/C (dose: 25.0 mg/kg/injection, schedule: Q01DX005 (ip), vehicle: saline with Tween-80) is reported as 88 % of control and the T/C [10] is reported as 88 % of control. The T/C [11] was 86 % of control and the T/C [12] was 93 % of control.

S=C(Nc1ccc(Cl)c(Cl)c1)Nc1ccccc1SCc1cc(Cl)cc2c1OCOC2 was tested, and the T/C [13] was 96 % of control, the T/C [14] was 88 % of control and the T/C [15] was 98 % of control.

In the case of O=c1cc(-c2ccccc2)nc(Sc2ccc([N+](=O)[O-])cc2[N+](=O)[O-])[nH]1, the T/C [13] is reported as 98 % of control, the T/C [14] is reported as 98 % of control and the T/C [15] is reported as 93 % of control.

CCCCN=NNCCCC was tested, and the T/C [9] was 110 % of control and the T/C [10] was 151 % of control.

With O=S(=O)(c1ccc(NC(=S)NCc2cccnc2)cc1)N1CCCCC1 the T/C [13] was 92 % of control, the T/C [14] was 93 % of control and the T/C [15] was 95 % of control.

O=c1c(SSc2coc3ccccc3c2=O)coc2ccccc12 was tested, and the T/C [7] was 116 % of control, the T/C (dose: 120.0 mg/kg/injection, schedule: Q01DX005 (ip), vehicle: saline with Tween-80) was 102 % of control and the T/C [8] was 106 % of control.

CCOC(=O)Nc1cc(NC/C(=N/O)c2ccc(Cl)cc2)c([N+](=O)[O-])c(N)n1 was tested, and the T/C (dose: 50.0 mg/kg/injection, schedule: Q01DX001 (ip), vehicle: Klucel (hydroxypropylcellulose) (HPC)) was 90 % of control and the T/C (dose: 100.0 mg/kg/injection, schedule: Q01DX001 (ip), vehicle: Klucel (hydroxypropylcellulose) (HPC)) was 87 % of control.

CCCCC(=O)C(=O)c1ccc(O)cc1O was tested, and the T/C [13] was 116 % of control, the T/C [14] was 114 % of control and the T/C [15] was 110 % of control.

With CC(COCNc1ccccc1)C(=O)O (centres undefined) the T/C [13] was 103 % of control, the T/C [14] was 103 % of control and the T/C [15] was 100 % of control.

For CC12CC(CC1=O)CC2S(=O)(=O)O (centres undefined), the T/C [1] was 96 % of control and the T/C (dose: 200.0 mg/kg/injection, schedule: Q01DX001 (ip), vehicle: saline with Tween-80) was 102 % of control.

For O=C1c2c(O)cccc2-c2nn(CCNCCO)c3ccc(NCCNCCO)c1c23, the T/C (dose: 3.12 mg/kg/injection, schedule: Q04DX002 (ip), vehicle: water) was 171 % of control, the T/C (dose: 6.25 mg/kg/injection, schedule: Q04DX002 (ip), vehicle: water) was 183 % of control and the T/C (dose: 12.5 mg/kg/injection, schedule: Q04DX002 (ip), vehicle: water) was 228 % of control and 235 % of control. For the same compound, the T/C (dose: 25.0 mg/kg/injection, schedule: Q04DX002 (ip), vehicle: water) was 184 % of control and 285 % of control and 588 % of control, the T/C (dose: 50.0 mg/kg/injection, schedule: Q04DX002 (ip), vehicle: water) was 88 % of control and the T/C (dose: 100.0 mg/kg/injection, schedule: Q04DX002 (ip), vehicle: water) was 190 % of control.

With c1ccc(-c2cnc3cccnc3n2)cc1 the T/C (dose: 60.0 mg/kg/injection, schedule: Q01DX005 (ip), vehicle: Klucel (hydroxypropylcellulose) (HPC)) was 100 % of control and the T/C (dose: 120.0 mg/kg/injection, schedule: Q01DX005 (ip), vehicle: Klucel (hydroxypropylcellulose) (HPC)) was 99 % of control.

In the case of CC(C)CC(NC(=O)C(C)NC(=O)CN)C(=O)O (stereo not drawn) (H-Gly-Ala-Leu-OH; configuration not given here), the T/C [10] is reported as 103 % of control, the T/C [11] is reported as 107 % of control and the T/C [12] is reported as 99 % of control.

For Cc1ccc2c(c1)nc1cc3c(cc1n2C1CCCCC1)c(Cl)c(=O)c1ccccc13, the T/C [16] was 92 % of control, the T/C [3] was 92 % of control and the T/C [5] was 98 % of control.

With c1ccc2cc(N=NNc3ccc4ccccc4c3)ccc2c1 the T/C [16] was 122 % of control, the T/C [2] was 90 % of control and the T/C [3] was 95 % of control. For the same compound, the T/C [4] was 100 % of control and the T/C [6] was 109 % of control.

With CC1(C)OCC(C(OS(C)(=O)=O)C2OC(C)(C)OC2COS(C)(=O)=O)O1 (centres undefined) the T/C [13] was 91 % of control, the T/C [14] was 97 % of control and the T/C [15] was 99 % of control.

For Brc1ccc(Nc2c3ccccc3nc3ccccc23)cc1, the T/C [2] was 95 % of control and the T/C [4] was 100 % of control.

CC(C)C(NC(=O)C(NC(=O)C(CCCN=C(N)N)NC(=O)C(N)CCCCN)C(C)C)C(N)=O (centres undefined) (H-KRVV-NH2; configuration not given here) was tested, and the T/C (dose: 12.5 mg/kg/injection, schedule: Q01DX009 (ip), vehicle: water) was 114 % of control, the T/C (dose: 25.0 mg/kg/injection, schedule: Q01DX009 (ip), vehicle: water) was 104 % of control and the T/C (dose: 50.0 mg/kg/injection, schedule: Q01DX009 (ip), vehicle: water) was 110 % of control. The T/C (dose: 100.0 mg/kg/injection, schedule: Q01DX009 (ip), vehicle: water) was 104 % of control and the T/C (dose: 200.0 mg/kg/injection, schedule: Q01DX009 (ip), vehicle: water) was 99 % of control.

With Cc1cc(OCc2nnc3n2S(=O)(=O)c2ccccc2N3c2ccccc2)ccc1Cl the T/C (dose: 100.0 mg/kg/injection, schedule: Q04DX002 (ip), vehicle: saline with Tween-80) was 92 % of control, the T/C (dose: 200.0 mg/kg/injection, schedule: Q04DX002 (ip), vehicle: saline with Tween-80) was 92 % of control and the T/C (dose: 400.0 mg/kg/injection, schedule: Q04DX002 (ip), vehicle: saline with Tween-80) was 87 % of control.

CCSC1=C(SCC)C1SCC was tested, and the T/C (dose: 12.5 mg/kg/injection, schedule: Q04DX003 (ip), vehicle: Klucel (hydroxypropylcellulose) (HPC)) was 107 % of control, the T/C (dose: 25.0 mg/kg/injection, schedule: Q04DX003 (ip), vehicle: Klucel (hydroxypropylcellulose) (HPC)) was 107 % of control and the T/C (dose: 50.0 mg/kg/injection, schedule: Q04DX003 (ip), vehicle: Klucel (hydroxypropylcellulose) (HPC)) was 121 % of control. The T/C (dose: 100.0 mg/kg/injection, schedule: Q04DX003 (ip), vehicle: Klucel (hydroxypropylcellulose) (HPC)) was 113 % of control.
